IC50 data for 42 compounds are collected here from patent US11111230B2 (ADLAI NORTYE BIOPHARMA CO., LTD., priority 2017, dated 2021).

For one experiment, the system named is Hela cells. Briefly: Activity in Hela cells (interferon-γ induced, kynurenine readout with Ehrlich's reagent). Particulars: Homo sapiens, interferon-γ 50 ng/mL, tryptophan 16 mg/L, 48 hours, absorption at 480 nm. The format is cell-based. As to the method:
Example 1: Study on the Activity of the Compound of the Present Invention in Hela Cells
Hela cells were seeded in 96-well culture plates and incubated at 37° C., 100% relative humidity, 5% CO2 incubator for 24 hours. The compound was dissolved in DMSO and diluted to an appropriate concentration, and then the compound was diluted 100-fold with DMEM medium containing interferon-γ and 10% fetal bovine serum to the final concentration of effect. Aspirate the old medium from the 96-well plate and add 200 μL of each medium containing compound and interferon-γ from the previous step. The content of tryptophan in the medium is 16 mg/L, and the concentration of interferon-γ is 50 ng/mL. The cells were placed in a 37° C., 100% relative humidity, and 5% CO2 incubator for 48 hours, then 140 μL of the cell culture supernatant was mixed with 15 μL of trichloroacetic acid, and placed at 52° C. for 30 min, then centrifuged at room temperature to take the centrifugal supernatant. Mix with an equal volume of Ehrlich's reagent, measure the light absorption at 480 nm, and calculate the IC50 values.

Another experiment addresses T1, human IDO1 protein (Homo sapiens, UniProt P14902).
T1 construct: expressed in transfected cells; host or cells: HEK293
Briefly: Activity in HEK293 cells highly expressing human IDO1 protein. In kind it is cell-based. The following applies: HEK293-IDO cells, tryptophan 16 mg/L, 24 hours, absorption at 480 nm; read-out: IC50 (HEK293 cell). As to the method:
Example 2: Study on the Activity of the Present Invention in HEK293 Cells Highly Expressing Human IDO1 Protein
HEK293-IDO cells with high expression of human IDO1 protein were prepared by electrotransformation, and the cells were seeded in 96-well culture plates, and cultured at 37° C., 100% relative humidity, and 5% CO2 incubator for 24 hours. Dissolve in DMSO and dilute to the appropriate concentration, then use DMEM medium containing 10% fetal bovine serum to dilute the candidate 100-fold to the final concentration. Aspirate the old medium from the 96-well plate and add 200 μL of the medium contained in the previous step to each well. The content of tryptophan in the medium is 16 mg/L. The cells were placed in a 37° C., 100% relative humidity, and 5% CO2 incubator for 24 hours. 140 μL of the cell culture supernatant was mixed with 15 μL of trichloroacetic acid and placed at 52° C. for 30 min. Mix with an equal volume of Ehrlich's reagent, measure the light absorption at 480 nm, and calculate the IC50 values.

T1 sequence (P14902 whole entry): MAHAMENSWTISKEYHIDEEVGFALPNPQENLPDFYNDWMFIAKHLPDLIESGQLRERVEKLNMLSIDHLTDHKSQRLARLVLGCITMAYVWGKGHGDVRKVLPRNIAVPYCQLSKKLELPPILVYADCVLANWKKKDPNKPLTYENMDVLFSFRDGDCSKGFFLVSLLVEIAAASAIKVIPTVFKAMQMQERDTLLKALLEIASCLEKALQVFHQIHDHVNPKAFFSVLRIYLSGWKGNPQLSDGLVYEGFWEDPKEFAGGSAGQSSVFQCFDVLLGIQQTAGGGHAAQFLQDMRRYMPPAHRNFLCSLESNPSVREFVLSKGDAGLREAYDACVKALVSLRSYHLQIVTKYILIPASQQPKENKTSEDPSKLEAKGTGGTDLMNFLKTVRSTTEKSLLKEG

On to `O=C(Nc1ccc(Cl)cc1)[C@H]1CC12CCC(c1ccnc3ccc(F)cc13)CC2` (single isomer, unassigned) [Compound 10a], for which the IC50 in the experiment with Hela cells and at human IDO1 protein was 0.1 to 10 nM each time.

Turning to `O=C(Nc1ccc(Cl)cc1)[C@@H]1CC12CCC(c1ccnc3ccc(F)cc13)CC2` (single isomer, unassigned) [Compound 10b], the IC50 in the experiment on Hela cells and on human IDO1 protein was above 100 nM throughout.

With `Cc1cc2nccc([C@H]3CC[C@@]4(CC3)C[C@@H]4C(=O)Nc3ccc(Cl)cc3)c2cc1F` (single isomer, unassigned) [Compound 92], the IC50 in the experiment on Hela cells and at human IDO1 protein was 0.1 to 10 nM throughout.

Turning to `Cc1cc2nccc([C@H]3CC[C@@]4(CC3)C[C@H]4C(=O)Nc3ccc(Cl)cc3)c2cc1F` (single isomer, unassigned) [Compound 93], the IC50 in the experiment with Hela cells and on human IDO1 protein was above 100 nM each time.

As for `COCCOc1ccc(NC(=O)[C@H]2C[C@]23CC[C@H](c2ccnc4cc(C)c(F)cc42)CC3)cc1` (single isomer, unassigned) [Compound 98], the IC50 with Hela cells and on human IDO1 protein was 0.1 to 10 nM throughout.

For `COCCOc1ccc(NC(=O)[C@@H]2C[C@]23CC[C@H](c2ccnc4cc(C)c(F)cc42)CC3)cc1` (single isomer, unassigned) [Compound 99], the IC50 with Hela cells and on human IDO1 protein was above 100 nM in each case.

For `COc1cc2nccc([C@H]3CC[C@@]4(CC3)C[C@@H]4C(=O)Nc3ccc(Cl)cc3)c2cc1F` (single isomer, unassigned) [Compound 108], the IC50 in the experiment with Hela cells and at human IDO1 protein was 0.1 to 10 nM each time.

With `COc1cc2nccc([C@H]3CC[C@@]4(CC3)C[C@H]4C(=O)Nc3ccc(Cl)cc3)c2cc1F` (single isomer, unassigned) [Compound 109], the IC50 in the experiment with Hela cells and at human IDO1 protein was above 100 nM throughout.

Take `O=C(Nc1ccc(Cl)cc1)C1CC12CCC(c1ccnc3ccc(F)cc13)CC2` (stereo not shown) [Compound 1, N-(4-chlorophenyl)-6-(6-fluoroquinolin-4-yl)spiro[2.5]octane-1-carboxamide]: the IC50 – broadly, the concentration needed to halve the response being measured – in the experiment with Hela cells was in the range of 0.1 to 10 nM; on human IDO1 protein, 10 to 100 nM.

Take `O=C(Nc1ccc(F)cc1)C1CC12CCC(c1ccnc3ccc(F)cc13)CC2` (stereo not shown) [Compound 2, N-(4-fluorophenyl)-6-(6-fluoroquinolin-4-yl)spiro[2.5]octane-1-carboxamide]: the IC50 in the experiment on Hela cells and on human IDO1 protein was 10 to 100 nM each time.

For the compound `O=C(NCc1ccc(Cl)cc1)C1CC12CCC(c1ccnc3ccc(F)cc13)CC2` (stereo not shown) [Compound 3, N-(4-chlorobenzyl)-6-(6-fluoroquinolin-4-yl)spiro[2.5]octane-1-carboxamide], the IC50 with Hela cells and on human IDO1 protein was above 100 nM in each case.

In the case of `O=C(NCCc1ccc(Cl)cc1)C1CC12CCC(c1ccnc3ccc(F)cc13)CC2` (stereo not shown) [Compound 4, N-(4-chlorophenethyl)-6-(6-fluoroquinolin-4-yl)spiro[2.5]octane-1-carboxamide], the IC50 with Hela cells and at human IDO1 protein was above 100 nM in each case.

`O=C(Nc1ccc(C(F)(F)F)cc1)C1CC12CCC(c1ccnc3ccc(F)cc13)CC2` (stereo not shown) [Compound 5, 6-(6-fluoroquinolin-4-yl)-N-(4-(trifluoromethyl)phenyl)spiro[2.5]octane-1-carboxamide]: the IC50 in the experiment on Hela cells is above 100 nM; on human IDO1 protein, 10 to 100 nM.

For the compound `N#Cc1ccc(NC(=O)C2CC23CCC(c2ccnc4ccc(F)cc24)CC3)cc1` (stereo not shown) [Compound 6, N-(4-cyanophenyl)-6-(6-fluoroquinolin-4-yl)spiro[2.5]octane-1-carboxamide], the IC50 with Hela cells and at human IDO1 protein was 10 to 100 nM each time.

In the case of `O=C(Nc1ccc(Cl)nc1)C1CC12CCC(c1ccnc3ccc(F)cc13)CC2` (stereo not shown) [Compound 7, N-(6-chloropyridin-3-yl)-6-(6-fluoroquinolin-4-yl)spiro[2.5]octane-1-carboxamide], the IC50 in the experiment on Hela cells and at human IDO1 protein was 10 to 100 nM in each case.

Take `O=C(Nc1ccc(Cl)cn1)C1CC12CCC(c1ccnc3ccc(F)cc13)CC2` (stereo not shown) [Compound 8, N-(5-chloropyridin-2-yl)-6-(6-fluoroquinolin-4-yl)spiro[2.5]octane-1-carboxamide]: the IC50 in the experiment with Hela cells and on human IDO1 protein was 10 to 100 nM each time.

In the experiment with Hela cells, `O=S(=O)(Nc1ccc(Cl)cc1)C1CC12CCC(c1ccnc3ccc(F)cc13)CC2` (stereo not shown) [Compound 14, N-(4-chlorophenyl)-6-(6-fluoroquinolin-4-yl)spiro[2.5]octane-1-sulfonamide] displayed an IC50 of 0.1 to 10 nM.

Consider `O=S(=O)(Nc1ccc(F)cc1)C1CC12CCC(c1ccnc3ccc(F)cc13)CC2` (stereo not shown) [Compound 15], for which, in the experiment with Hela cells, the IC50 fell in the range of 0.1 to 10 nM.

As to `O=S(=O)(Nc1ccc(C(F)(F)F)cc1)C1CC12CCC(c1ccnc3ccc(F)cc13)CC2` (stereo not shown) [Compound 16], in the experiment on Hela cells, the IC50 was 0.1 to 10 nM.

`COc1ccc(NS(=O)(=O)C2CC23CCC(c2ccnc4ccc(F)cc24)CC3)cc1` (stereo not shown) [Compound 17]: in the experiment with Hela cells, the IC50 lay within 0.1 to 10 nM.

Consider `Cc1ccc(NS(=O)(=O)C2CC23CCC(c2ccnc4ccc(F)cc24)CC3)cc1` (stereo not shown) [Compound 18], for which the half-maximal inhibitory concentration (IC50) in the experiment with Hela cells fell in the range of 0.1 to 10 nM.

Take `N#Cc1ccc(NS(=O)(=O)C2CC23CCC(c2ccnc4ccc(F)cc24)CC3)cc1` (stereo not shown) [Compound 19]: the IC50 with Hela cells lay within 0.1 to 10 nM.

`Cc1ccc(NC(=O)N2CC23CCC(c2ccnc4ccc(F)cc24)CC3)cc1` (stereo not shown) [Compound 24]: the IC50 with Hela cells was above 100 nM.

For `O=C(Nc1ccc(Cl)cc1)C1COC12CCC(c1ccnc3ccc(F)cc13)CC2` (stereo not shown) [Compound 50, N-(4-chlorophenyl)-7-(6-fluoroquinolin-4-yl)-1-oxaspiro[3.5]nonane-3-carboxamide], in the experiment on Hela cells, the IC50 was 10 to 100 nM.

Consider `O=C(Nc1ccc(F)cc1)C1COC12CCC(c1ccnc3ccc(F)cc13)CC2` (stereo not shown) [Compound 51], for which the IC50 in the experiment on Hela cells lay within 10 to 100 nM.

Compound `O=C(Nc1ccc(C(F)(F)F)cc1)C1COC12CCC(c1ccnc3ccc(F)cc13)CC2` (stereo not shown) [Compound 52] gave an IC50 in the experiment with Hela cells of 10 to 100 nM.

In the experiment with Hela cells, `COc1ccc(NC(=O)C2COC23CCC(c2ccnc4ccc(F)cc24)CC3)cc1` (stereo not shown) [Compound 53] had an IC50 of 10 to 100 nM.

`Cc1ccc(NC(=O)C2COC23CCC(c2ccnc4ccc(F)cc24)CC3)cc1` (stereo not shown) [Compound 54] showed an IC50 in the experiment with Hela cells of 10 to 100 nM.

Compound `N#Cc1ccc(NC(=O)C2COC23CCC(c2ccnc4ccc(F)cc24)CC3)cc1` (stereo not shown) [Compound 55] showed an IC50 in the experiment with Hela cells of 10 to 100 nM.

Take `Cc1cc2nccc(C3CCC4(CC3)CC4C(=O)Nc3ccc(F)cc3)c2cc1F` (stereo not shown) [Compound 80, 6-(6-fluoro-7-methylquinolin-4-yl)-N-(4-fluorophenyl)spiro[2.5]octane-1-carboxamide]: in the experiment with Hela cells, the IC50 was 0.1 to 10 nM.

In turn, `Cc1cc2nccc(C3CCC4(CC3)CC4C(=O)Nc3ccc(C#N)cc3)c2cc1F` (stereo not shown) [Compound 81] came in with an IC50 with Hela cells of 0.1 to 10 nM.

Turning to `Cc1cc2nccc(C3CCC4(CC3)CC4C(=O)Nc3ccc(C(F)(F)F)cc3)c2cc1F` (stereo not shown) [Compound 82], in the experiment with Hela cells, the IC50 was 0.1 to 10 nM.

Turning to `Cc1ccc(NC(=O)C2CC23CCC(c2ccnc4cc(C)c(F)cc24)CC3)cc1` (stereo not shown) [Compound 83], the IC50 with Hela cells was 0.1 to 10 nM.

As to `COc1ccc(NC(=O)C2CC23CCC(c2ccnc4cc(C)c(F)cc24)CC3)cc1` (stereo not shown) [Compound 84], the IC50 with Hela cells was in the range of 0.1 to 10 nM.

Compound `Cc1cc2nccc(C3CCC4(CC3)CC4C(=O)Nc3ccc(Br)cc3)c2cc1F` (stereo not shown) [Compound 85] yielded an IC50 in the experiment on Hela cells of 0.1 to 10 nM.

In the experiment with Hela cells, `Cc1cc2nccc(C3CCC4(CC3)CC4C(=O)Nc3ccc(Cl)c(F)c3)c2cc1F` (stereo not shown) [Compound 86] showed an IC50 of 0.1 to 10 nM.

In the experiment with Hela cells, `CN1CC(C(=O)Nc2ccc(Cl)cc2)C2(CCC(c3ccnc4ccc(F)cc34)CC2)C1` (stereo not shown) [Compound 87, N-(4-chlorophenyl)-8-(6-fluoroquinolin-4-yl)-2-methyl-2-azaspiro[4.5]decane-4-carboxamide] gave an IC50 above 100 nM.

In the experiment with Hela cells, `CN1CC(C(=O)Nc2ccc(F)cc2)C2(CCC(c3ccnc4ccc(F)cc34)CC2)C1` (stereo not shown) [Compound 88] showed an IC50 above 100 nM.

Consider `CN1CC(C(=O)Nc2ccc(C(F)(F)F)cc2)C2(CCC(c3ccnc4ccc(F)cc34)CC2)C1` (stereo not shown) [Compound 89], for which the IC50 in the experiment on Hela cells is above 100 nM.

With `CN1CC(C(=O)Nc2ccc(Br)cc2)C2(CCC(c3ccnc4ccc(F)cc34)CC2)C1` (stereo not shown) [Compound 90], the IC50 with Hela cells is above 100 nM.

In the experiment on Hela cells, `CN1CC(C(=O)Nc2ccc(C#N)cc2)C2(CCC(c3ccnc4ccc(F)cc34)CC2)C1` (stereo not shown) [Compound 91] came in with an IC50 above 100 nM.

`COCc1cc2nccc(C3CCC4(CC3)CC4C(=O)Nc3ccc(Cl)cc3)c2cc1F` (stereo not shown) [Compound 115, N-(4-chlorophenyl)-6-(6-fluoro-7-(methoxymethyl)quinolin-4-yl)spiro[2.5]octane-1-carb oxamide] showed an IC50 with Hela cells of 0.1 to 10 nM.
